# Test results published in PMC10497752, “Heparins are potent inhibitors of ectonucleotide pyrophosphatase/phospho-diesterase-1 (NPP1) – a promising target for the immunotherapy of cancer” (Frontiers in Immunology, 2023).
# Columns and labels:
# [1] = cited from earlier work
# [2] = molecular target: T1, human NTPDase1 (CD39) (Homo sapiens, UniProt P49961); experiment: NTPDase CE-based assay, NTPDase1; type: biochemical; details: 20 µg/mL (12 µM); read-out: NTPDase1 inhibition, selectivity study
# T1 construct: made in house; host or cells: COS-7 cells
# T1 sequence (P49961 1-510): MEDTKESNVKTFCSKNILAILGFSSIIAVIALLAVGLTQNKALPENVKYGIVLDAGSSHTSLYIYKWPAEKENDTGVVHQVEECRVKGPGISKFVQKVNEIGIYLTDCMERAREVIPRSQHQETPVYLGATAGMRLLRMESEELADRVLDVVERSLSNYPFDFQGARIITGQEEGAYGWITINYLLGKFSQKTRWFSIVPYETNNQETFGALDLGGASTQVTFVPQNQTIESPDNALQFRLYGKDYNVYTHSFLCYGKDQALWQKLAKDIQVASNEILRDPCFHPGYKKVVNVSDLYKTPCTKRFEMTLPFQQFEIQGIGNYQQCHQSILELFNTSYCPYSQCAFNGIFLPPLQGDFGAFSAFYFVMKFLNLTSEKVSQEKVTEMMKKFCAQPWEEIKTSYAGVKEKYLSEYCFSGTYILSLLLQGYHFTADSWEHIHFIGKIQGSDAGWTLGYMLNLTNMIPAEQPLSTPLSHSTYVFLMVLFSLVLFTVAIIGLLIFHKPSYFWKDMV
# Procedure: For monitoring the activity of human NTPDases (subtypes 1, 2, 3 and 8) in the presence of test compounds, a CE-based assay system was used, according to a published procedure ([11], [25]). The following concentrations of test compounds were investigated in initial screening studies: 63 IU/mL of compounds 1 and 2, 30 µM of compound 6. For selectivity studies, the following concentration were employed: 50 IU/mL of 1, 12 µM of 6, and 48 µM of 7. The amount of enzyme was selected according to previously performed enzymatic titration, and adjusted to ensure a 10–20% conversion rate. Enzymes were obtained by transfection of COS-7 cells using plasmids encoding human NTPDase1 (GenBank accession number U87967) ([26]), NTPDase2 (NM_203468) ([27]), a kind gift of Dr. A.F. Knowles (San Diego, CA), NTPDase3 (AF034840) ([28]), a kind gift of Dr. T.L. Kirley (Cincinnati, OH) and human NTPDase8 (AY430414) ([29]) and purified as previously described ([30], [31]). The reaction buffer consisted of 10 mM HEPES, 2 mM CaCl2, and 1 mM MgCl2, pH 7.4. In the CE assay, the selected substrate concentration (ATP) was 100 µM for all studied human NTPDases (-1, -2, -3 and -8). […] The released products were separated by CE and quantified by their UV-absorption at 260 nm with ADP and AMP as external standards, as previously described ([11]); positive and negative controls were included.
# [3] = molecular target: T2, human NPP3 (Homo sapiens, UniProt O14638); experiment: NPP3 colorimetric assay, p-Nph-5'-TMP as substrate; type: biochemical; details: 20 µg/mL (12 µM)
# T2 construct: Soluble and purified human NPP3, prepared as previously described; made in house
# T2 sequence (O14638 31-875 limits assumed): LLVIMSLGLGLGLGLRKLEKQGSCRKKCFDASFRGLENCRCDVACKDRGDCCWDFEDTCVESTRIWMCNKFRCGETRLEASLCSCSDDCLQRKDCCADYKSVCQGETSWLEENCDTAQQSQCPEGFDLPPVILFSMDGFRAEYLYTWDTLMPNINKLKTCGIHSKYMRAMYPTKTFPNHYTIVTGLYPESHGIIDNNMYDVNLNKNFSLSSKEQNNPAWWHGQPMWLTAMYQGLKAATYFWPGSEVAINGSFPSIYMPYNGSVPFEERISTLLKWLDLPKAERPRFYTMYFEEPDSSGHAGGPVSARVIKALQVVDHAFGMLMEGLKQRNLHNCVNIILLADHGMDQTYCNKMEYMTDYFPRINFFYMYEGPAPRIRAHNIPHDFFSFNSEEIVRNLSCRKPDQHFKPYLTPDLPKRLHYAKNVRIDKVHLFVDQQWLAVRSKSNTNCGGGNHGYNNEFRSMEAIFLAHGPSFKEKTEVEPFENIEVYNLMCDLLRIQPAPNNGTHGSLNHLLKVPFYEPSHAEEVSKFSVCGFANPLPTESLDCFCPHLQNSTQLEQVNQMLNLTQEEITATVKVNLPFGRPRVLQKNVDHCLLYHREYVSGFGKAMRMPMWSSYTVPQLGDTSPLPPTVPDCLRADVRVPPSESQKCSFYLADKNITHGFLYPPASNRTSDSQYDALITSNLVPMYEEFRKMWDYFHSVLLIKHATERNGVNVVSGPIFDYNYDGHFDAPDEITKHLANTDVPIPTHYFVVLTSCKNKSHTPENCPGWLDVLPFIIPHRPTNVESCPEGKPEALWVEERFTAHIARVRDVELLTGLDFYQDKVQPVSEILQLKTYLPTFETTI
# Procedure: Compounds 1, 2, 5, 6, and 7 were screened at different concentrations using 400 μM of p-nitrophenyl thymidine monophosphate (p-Nph-5´-TMP) as substrate to study potential inhibition of NPP3 and NPP5 using a colorimetric assay as previously described ([21]). Soluble and purified human NPP3, prepared as previously described ([22]), and human NPP5 ([23]) were diluted in the assay buffer (50 mM TRIS HCl, 2 mM CaCl2, and 0.2 mM ZnCl2, pH 9.00), and 0.09 µg of NPP3, or 0.4 µg of NPP5 were employed. The mixtures were incubated for 30 min at 37°C in case of NPP3, and for 100 min at 37°C in case of NPP5, and the reactions were subsequently terminated by adding 20 μL of 1.0 N aq. NaOH solution. The assay is based on the enzymatic ester hydrolysis of p-Nph-5’-TMP which results in the formation of the yellow p-nitrophenolate anion. The absorption was measured at 400 nm using a BMG PheraStar FS plate reader (BMG Labtech GmbH, Ortenberg, Germany). Each analysis was repeated three times with triplicate measurements.
smiles,measurement,setting,value
"CO[C@H]1O[C@H](COS(=O)(=O)O)[C@@H](O[C@@H]2O[C@@H](C(=O)O)[C@@H](O[C@H]3O[C@H](COS(=O)(=O)O)[C@@H](O[C@@H]4O[C@H](C(=O)O)[C@@H](O[C@H]5O[C@H](COS(=O)(=O)O)[C@@H](O)[C@H](O)[C@H]5NS(=O)(=O)O)[C@H](O)[C@H]4O)[C@H](OS(=O)(=O)O)[C@H]3NS(=O)(=O)O)[C@H](O)[C@H]2OS(=O)(=O)O)[C@H](O)[C@H]1NS(=O)(=O)O [Compound 6, Fondaparinux]",half-life,[1],17 h
same,inhibition at 12 µM,[2],~35%
same,"NPP3 inhibition, selectivity study",[3],no effect
